The values that follow come from ChEMBL document CHEMBL1129100, “Non-peptide glycoprotein IIb/IIIa inhibitors. 9. Centrally constrained alpha-sulfonamides are useful tools for exploring platelet receptor function” (Bioorg Med Chem Lett, 1996).

Test [1] deals with Integrin alpha-IIb/beta-3 (Homo sapiens) (UniProt P05106+P08514). Nature of the test: Affinity for purified alpha IIb beta-3 integrin. Format: protein-complex assay.
The species entered for a further test is Homo sapiens. Nature of the test: Inhibition of human gel filtered platelet aggregation stimulated by ADP ([…]). In kind it is functional, organism-based.

As to `CCCCS(=O)(=O)N[C@@H](Cc1ccc(OCCCCC2CCNCC2)cc1)C(=O)O` [TIROFIBAN], the ED50 in test [1] is 0.9 nM. Besides, in the test filed under Homo sapiens, the IC50 was 18 nM.
On the same counts, the results for `O=C(O)C1=C/C(=N\C(S)=N\CCS(=O)(=O)N[C@@H](CNC(=O)c2ccc3c(c2)C(=O)N(CCC2CCNCC2)C3)C(=O)O)C=CC1=C1c2ccc(O)cc2Oc2cc(O)ccc21` are 1.9 nM and 31 nM.
The matching figures for `O=C(O)CCNC(=O)c1ccc2c(c1)C(=O)N(CCC1CCNCC1)C2`: 12 nM and 27 nM.
On the same counts, the results for `CN(C)c1cccc2c(S(=O)(=O)N[C@@H](CNC(=O)c3ccc4c(c3)C(=O)N(CCC3CCNCC3)C4)C(=O)O)cccc12` are 2.1 nM and 12 nM.

Usually IC50 stands for the concentration that inhibits the measured activity by half.
